For data set [1], the target named is T1, AKT1 (Homo sapiens, UniProt P31749).
T1 construct: purchased Invitrogen P2999
Nature of the data set: AKT1 kinase activity inhibition (KinEASE-STK S3 HTRF kit). It is filed as biochemical. The protocol:
(§1) The mean inhibition of kinase and the IC50 value were measured using a NovoStar microplate reader (BMG, Germany).
(§2) The following methods were used to determine the inhibitory effect of the compound of formula I on the kinase activity of AKT1/AKT2/AKT3 in vitro. The experimental method is briefly described as follows:
(§3) The enzyme activity of AKT1 (Invitrogen, P2999), AKT2 (Invitrogen, PV3184), and AKT3 (Invitrogen, PV3185) was determined using a KinEASE-STK S3 kit (Cisbio, 62ST3PEC). Test compounds were each first subjected to 3-fold gradient dilution with DMSO from 500 μM to obtain a total of 11 concentrations. The 5× buffer in the kit was diluted to 1× buffer, and DTT (Sigma, 43816-10ML) and MgCl2 were added to make the buffer contain 1 mM DTT and 5 mM MgCl2. Compounds were each subjected to 20-fold dilution with 1× buffer for later use. […] The mixture was incubated at room temperature for 60 min, values of signals emitted at […] and 620 nm after excitation at 337 nm were measured by using an HTRF module of a multi-functional microplate detector (BMG Labtech, PHERAstar FS), and the ratio of the readings was multiplied by 10,000 to obtain a ratio value. Dose-response curves were drawn according to the concentration of the compounds and the ratio values by using Graphpad Prism software, and the IC50 values for the inhibitory activity of the compounds were calculated.
(In general: TR-FRET usually uses a lanthanide donor and a delayed reading to cut background.)

Data set [2] has as its target T2, AKT3 (Homo sapiens, UniProt Q9Y243).
T2 construct: purchased Invitrogen PV3185
Description: AKT3 kinase activity inhibition (KinEASE-STK S3 HTRF kit). It is filed as biochemical. How it is done: as §1, §2, §3

The target of data set [3] is T3, AKT2 (Homo sapiens, UniProt P31751).
T3 construct: purchased Invitrogen PV3184
T3 sequence (P31751 whole entry): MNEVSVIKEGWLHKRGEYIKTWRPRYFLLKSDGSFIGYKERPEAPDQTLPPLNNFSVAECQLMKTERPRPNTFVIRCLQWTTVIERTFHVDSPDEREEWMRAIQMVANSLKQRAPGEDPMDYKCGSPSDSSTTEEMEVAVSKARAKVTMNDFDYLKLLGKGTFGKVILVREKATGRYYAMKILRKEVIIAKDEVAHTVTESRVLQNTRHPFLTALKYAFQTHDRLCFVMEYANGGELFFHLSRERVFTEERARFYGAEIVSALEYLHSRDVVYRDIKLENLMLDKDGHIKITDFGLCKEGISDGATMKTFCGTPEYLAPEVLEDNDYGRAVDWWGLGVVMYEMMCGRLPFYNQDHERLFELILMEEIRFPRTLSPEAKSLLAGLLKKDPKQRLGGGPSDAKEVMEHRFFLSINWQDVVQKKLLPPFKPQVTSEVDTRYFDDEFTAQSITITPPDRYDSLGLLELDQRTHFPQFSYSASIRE
Nature of the data set: AKT2 kinase activity inhibition (KinEASE-STK S3 HTRF kit). It is filed as biochemical. How it is done:
as §1, §2, §3

Data set [4] is described as follows: Pharmacokinetic test in rats, injection (i.v.). In kind it is in vivo. As to conditions: SD rats, 1 mg/kg. The protocol:
The drug concentration in the plasma of the test animals (SD rats) at different time points after injection (i.v.) of the test compounds was determined by using an LC/MS/MS method. The pharmacokinetic performance of the compound of formula I in rats was studied and their pharmacokinetic profile was evaluated.
8 SD rats, half male and half female, divided into 2 groups, purchased from Vital River Laboratory Animal Technology Co., Ltd.
A certain amount of the compound was weighed out, and 5% of DMSO, 5% of Tween 80, and 90% of normal saline were added to obtain a colorless and clear solution.
The rats were subjected to administration by injection with a dose of 1 mg/kg and an administration volume of 5 mL/kg.
The test compound was administered by injection to the rats, and 0.2 mL of blood was collected from the orbit before administration and 5 min, 0.25 h, 0.5 h, 1.0 h, 2.0 h, 4.0 h, 8.0 h, 11.0 h, and 24.0 h after administration. […]
The content of the test compounds in the rat plasma after administration by injection of different concentrations of the compound was determined: 25 μL of rat plasma at each time point after administration was mixed with 50 μL of internal standard solution (camptothecin, 100 ng/mL) and 200 μL of acetonitrile, and the mixture was vortexed for 5 min and centrifuged for 10 min at 3700 rpm. […]

Data set [5] is described as follows: Pharmacokinetic test in nude mice, intragastric administration. It is filed as in vivo, Balb/c nude mice. As to conditions: i.g., 50 or 100 mg/kg. The protocol: The drug concentration in the plasma of the test animals (Balb/c nude mice) at different time points after intragastric administration (i.g.) of the test compounds was determined by using an LC/MS/MS method. The pharmacokinetic performance of the compound of formula I in nude mice was studied and their pharmacokinetic profile was evaluated.
18 Balb/c nude mice, female, divided into 2 groups and purchased from Vital River Laboratory Animal Technology Co., Ltd.
A certain amount of compound was weighed out, and 99.8% (0.5% methylcellulose) was added into the compound, and then 0.2% Tween was added. The mixture was subjected to ultrasonic treatment to obtain a suspension, which was stirred for administration.
The nude mice were subjected to intragastric administration with a dose of 50 mg/kg or 100 mg/kg and an administration volume of 0.2 mL/10 g. […]
The content of the test compounds in the nude mice plasma after intragastric administration of different concentrations of the compound was determined: 20 μL of nude mouse plasma at each time point after administration was mixed with 50 μL of internal standard solution (camptothecin, 100 ng/mL) and 200 μL of acetonitrile, and the mixture was vortexed for 5 min and centrifuged for 10 min at 3700 rpm. […]

Structures are written as SMILES.

T1 sequence (P31749 whole entry): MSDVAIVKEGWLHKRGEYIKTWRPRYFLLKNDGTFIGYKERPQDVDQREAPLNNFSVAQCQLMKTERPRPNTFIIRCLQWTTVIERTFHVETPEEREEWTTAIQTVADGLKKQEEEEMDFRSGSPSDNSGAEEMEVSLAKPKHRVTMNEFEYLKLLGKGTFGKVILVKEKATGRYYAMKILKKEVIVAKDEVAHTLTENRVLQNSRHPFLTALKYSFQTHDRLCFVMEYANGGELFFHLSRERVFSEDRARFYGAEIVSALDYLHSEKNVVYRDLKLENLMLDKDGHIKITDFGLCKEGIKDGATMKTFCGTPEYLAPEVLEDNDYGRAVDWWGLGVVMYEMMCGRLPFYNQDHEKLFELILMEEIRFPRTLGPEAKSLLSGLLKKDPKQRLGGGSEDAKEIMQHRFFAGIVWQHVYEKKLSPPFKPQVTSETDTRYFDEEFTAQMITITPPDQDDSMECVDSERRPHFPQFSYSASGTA
T2 sequence (Q9Y243 whole entry): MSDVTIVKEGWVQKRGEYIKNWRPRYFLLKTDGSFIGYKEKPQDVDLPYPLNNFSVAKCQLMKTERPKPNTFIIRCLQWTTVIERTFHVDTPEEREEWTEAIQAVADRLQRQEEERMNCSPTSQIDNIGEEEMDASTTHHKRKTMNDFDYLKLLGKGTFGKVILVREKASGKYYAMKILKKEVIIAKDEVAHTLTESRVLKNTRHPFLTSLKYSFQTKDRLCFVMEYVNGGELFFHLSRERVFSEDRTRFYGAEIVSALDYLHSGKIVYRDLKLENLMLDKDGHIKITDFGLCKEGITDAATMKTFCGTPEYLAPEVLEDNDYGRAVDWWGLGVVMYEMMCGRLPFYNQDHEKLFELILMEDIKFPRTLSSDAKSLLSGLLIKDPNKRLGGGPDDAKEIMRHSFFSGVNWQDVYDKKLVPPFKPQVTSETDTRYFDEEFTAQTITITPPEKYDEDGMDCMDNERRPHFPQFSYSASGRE

As for `CC(C)NC[C@@H](C(=O)N1C2CCC1CN(c1ncnc3c1C(C)(C)C(=O)N3)C2)c1ccc(Cl)cc1` [Compound of formula I], the “inhibitory effect on AKT1 enzyme (conclusion)” value in data set [1] is on record as “good inhibitory effect”. In addition, the “inhibitory effect on AKT3 enzyme (conclusion)” value in data set [2] is on record as “good inhibitory effect”. The “inhibitory effect on AKT2 enzyme (conclusion)” value in data set [3] is reported as “good inhibitory effect”. In data set [4], the “pharmacokinetics (conclusion)” value is listed as “good pharmacokinetics”. Moreover, the “pharmacokinetic absorption (conclusion)” value in data set [5] was “good pharmacokinetic absorption”.

For the origin of these results see patent publication US20250145641A1, “FUSED BICYCLIC DERIVATIVE, PHARMACEUTICALLY ACCEPTABLE SALT, CRYSTAL FORM THEREOF AND PREPARATION METHOD THEREFOR” (JIANGSU HENGRUI PHARMACEUTICALS CO., LTD., priority 2021, published 2025).
